Laboratory results taken from PubChem BioAssay AID1996.
Converted amounts (≈) assume the structure as drawn.

conditions: buffer; pH 7.4; 200.0 µM

Point of comparison: `O=[N+]([O-])c1c(NCCO)cc(N2CCCCCC2)c2nonc12`, solubility kinetic 40.5 µg/mL (≈ 126 µM). Against it:
- CCOC(=O)c1ccc(NS(=O)(=O)c2ccc3oc(=O)[nH]c3c2)cc1 — higher, > 54.4 µg/mL
- CCCCCCCCCC(=O)N[C@H](CN1CCOCC1)[C@H](O)c1ccccc1.Cl — higher, > 64.1 µg/mL
- COc1ccc(CCN(C)C2CCCN(S(C)(=O)=O)C2)cc1OC (centres undefined) — higher, > 53.5 µg/mL
- O=[N+]([O-])c1cccnc1Oc1ccc(OCc2ccccc2)cc1 — lower, < 0.3 µg/mL
- Cc1ccc(NC(=O)CNC(=O)c2cccc(Cl)c2)nc1 — 3.5-fold lower, 11.7 µg/mL (≈ 38.5 µM)
- Cc1ccccc1S(=O)(=O)N1CCN(C)CC1 — not separable, > 38.2 µg/mL
- CCCn1c(=O)c(C(=O)Nc2cccc(C)c2)c(O)c2ccccc21 — lower, < 0.4 µg/mL
- O=C(OCc1cc(=O)n2ccsc2n1)c1ccccc1O — 1.8-fold lower, 22.5 µg/mL (≈ 74.4 µM)
- CCOc1ccc(N/C=C/C(=O)c2cc(OC)c(OC)c(OC)c2)cc1 — lower, < 0.8 µg/mL
- CCC1(CC)Cc2ccccc2-c2nc(CN(C)C)[nH]c(=O)c21 — 3.7-fold lower, 10.8 µg/mL (≈ 34.7 µM)
- COc1ccc(C)cc1S(=O)(=O)N1CCc2ccccc2C1 — 2.2-fold lower, 18.1 µg/mL (≈ 57 µM)
- O=C(COC(=O)c1cccs1)Nc1ccccc1C(F)(F)F — 16-fold lower, 2.5 µg/mL (≈ 7.59 µM)
- Cc1cc(=O)[nH]c(/N=C(\N)Nc2ccc(SC(F)F)cc2)n1 — 20-fold lower, 2 µg/mL (≈ 6.15 µM)
- CCCn1c(SCC(=O)N2CCc3ccccc3C2)nc(O)cc1=O — higher, > 53.9 µg/mL
- O=C(NCc1ccncc1)c1cc(F)c(F)cc1Cl — higher, > 42.4 µg/mL
- COc1ccc(C)cc1NC(=O)C1CCN(S(C)(=O)=O)CC1 — higher, > 49 µg/mL
- CC(=O)C1=C(Nc2ccccc2)CC(C)(O)C(C(C)=O)C1c1ccccc1 (centres undefined) — 9.9-fold lower, 4.1 µg/mL (≈ 11.3 µM)
- Cc1c(C(=O)OCC(=O)Nc2ccc(C(=O)N(C)C)cc2)oc2ccccc12 — 6.1-fold lower, 6.6 µg/mL (≈ 17.4 µM)
- Cc1ccsc1/C=N/NC(=O)CNC(=O)c1ccco1 — higher, > 43.7 µg/mL
- COc1cc(C)c(Cl)cc1S(=O)(=O)NCc1ccccn1 — within 1.5-fold, 34.5 µg/mL (≈ 106 µM)
- CC1(C)CC(=O)c2c(Cc3ccccc3)noc2C1 — within 1.5-fold, 33.4 µg/mL (≈ 131 µM)
- COc1ccc(COc2cccc3ccc(C)nc23)cc1F — 7.8-fold lower, 5.2 µg/mL (≈ 17.5 µM)
- C=CCSc1ncnc2c1oc1nc3c(cc12)COC(C)(C)C3 — 31-fold lower, 1.3 µg/mL (≈ 3.97 µM)
- CC1Cc2ccccc2N1C1=CC(=O)CCC1 (centres undefined) — not separable, > 34.1 µg/mL
- N#Cc1ccccc1NC(=O)CN1CCN(c2ccccn2)CC1 — higher, > 48.2 µg/mL
- COc1ccc(NC(=O)Cc2ccsc2)c(OC)c1 — higher, > 41.6 µg/mL
- CC(C)CC(=O)N1CCN(C(=O)c2ccco2)CC1 — not separable, > 39.6 µg/mL
- CCCCn1c(NC(=O)c2ccco2)c(C(=O)OCC)c2nc3ccccc3nc21 — 8.3-fold lower, 4.9 µg/mL (≈ 12.1 µM)
- O=[N+]([O-])c1ccccc1OCCOc1ccccc1[N+](=O)[O-] — lower, < 0.3 µg/mL
- COc1cc(OC)cc(C(=O)NCc2ccc3c(c2)OCO3)c1 — within 1.5-fold, 46.1 µg/mL (≈ 146 µM)
- O=C1CCC(C(=O)Nc2ccc(Cl)cc2)N1 (centres undefined) — not separable, > 35.8 µg/mL
- Cc1cc(C(=O)Nc2ccc(F)cc2F)on1 — not separable, > 35.7 µg/mL
- CCC(=O)N(CCC1(c2ccccc2OC)CCOC(C(C)C)C1)Cc1ccco1 (centres undefined) — 1.9-fold lower, 21.4 µg/mL (≈ 51.7 µM)
- CC1CCC(NC(=O)CN2C(=O)NC(C)(C)C2=O)CC1 (centres undefined) — higher, > 42.2 µg/mL
- O=C(NCCCNC(=O)c1ccc(Cl)cc1Cl)c1ccccn1 — within 1.5-fold, 51.8 µg/mL (≈ 147 µM)
- C[C@H](NC(=O)C(c1ccccc1)c1ccccc1)c1ccccc1 — 4.8-fold lower, 8.5 µg/mL (≈ 26.9 µM)
- CN(C(=O)c1c[nH]c(=O)cc1C(F)(F)F)c1ccc(Cl)c(Cl)c1 — within 1.5-fold, 40.8 µg/mL (≈ 112 µM)
- CC1(C)OC2C(O1)[C@@H](CO)O[C@H]2n1cnc2c(N)ncnc21 (some centres undefined) — higher, > 46.1 µg/mL
- Cc1ccc(NS(=O)(=O)c2ccc3c(c2)oc(=O)n3C)cc1C — lower, < 0.4 µg/mL
- O=C(CCc1ccc(S(=O)(=O)N2CCOCC2)cc1)OCC(=O)c1ccccc1 — 5.3-fold lower, 7.6 µg/mL (≈ 18.2 µM)
- CCc1ccccc1NC(=O)CCN1C(=O)C2C3CCC(C3)C2C1=O (centres undefined) — within 1.5-fold, 43 µg/mL (≈ 126 µM)
- COc1ccc(C(=O)O)cc1S(=O)(=O)NCc1ccccn1 — higher, > 48.4 µg/mL
- FC(F)(F)c1ccc(Cl)c(-n2c(-c3ccco3)n[nH]c2=S)c1 — higher, > 51.9 µg/mL
- COc1ccc(Nc2c(-c3ccco3)nc3ccc(C)cn23)cc1 — 81-fold lower, 0.5 µg/mL (≈ 1.57 µM)
- CCOc1ccc(S(=O)(=O)N2CCOCC2)cc1[N+](=O)[O-] — higher, > 47.4 µg/mL
- O=C(NCCN1CCCCC1)c1cc(Cl)ccc1Cl — within 1.5-fold, 39.8 µg/mL (≈ 132 µM)
- Cc1c(C(=O)N2CCN(S(=O)(=O)c3cccs3)CC2)oc2ccc(F)cc12 — 3-fold lower, 13.6 µg/mL (≈ 33.3 µM)
- S=C1NCN(Cc2cccnc2)CN1Cc1ccccc1 — higher, > 44.8 µg/mL
- CCOC(=O)c1ccc(NC(=O)C2CC3CCC2C3)cc1 (centres undefined) — 1.8-fold lower, 22.2 µg/mL (≈ 77.3 µM)
- CCOC(=O)c1c(S(=O)(=O)N2CCCC2)c(C)n(C)c1C — higher, > 47.2 µg/mL
- O=C(c1ccco1)N1CCN(C23CC4CC(CC(C4)C2)C3)CC1 — higher, > 47.2 µg/mL
- CC(C)C(NS(=O)(=O)c1cccc(C(F)(F)F)c1)C(=O)O (centres undefined) — higher, > 48.8 µg/mL
- Cc1onc(-c2c(F)cccc2Cl)c1C(=O)N=C(N)N1CCCC1 — 8.1-fold lower, 5 µg/mL (≈ 14.3 µM)
- CCCSc1nc2c(c(=O)[nH]c(=O)n2C)n1Cc1ccccc1 — 25-fold lower, 1.6 µg/mL (≈ 4.84 µM)
- COC(=O)C(C(C)C)N1CCc2c(C)nc3c(C#N)cnn3c21 (centres undefined) — higher, > 47 µg/mL
- CC(O)CNC(=O)Cc1cc(=O)[nH]c(=O)[nH]1 (centres undefined) — not separable, > 34.1 µg/mL
- CCOc1ccc2ccccc2c1C(=O)N[C@@H]1C(=O)N2[C@@H]1SC(C)(C)[C@@H]2C(=O)[O-].[Na+] — higher, > 65.5 µg/mL
- Cc1ccc2oc(=O)n(CCOc3ccccc3)c2c1 — 2.9-fold lower, 14.2 µg/mL (≈ 52.7 µM)
